Where “and” joins values, the source holds several entries; their conditions need not be identical. Equal entries are not always repeated.

The target in the series is T1, UGT1A9 (Homo sapiens, UniProt O60656).
T1 sequence (O60656 26-530): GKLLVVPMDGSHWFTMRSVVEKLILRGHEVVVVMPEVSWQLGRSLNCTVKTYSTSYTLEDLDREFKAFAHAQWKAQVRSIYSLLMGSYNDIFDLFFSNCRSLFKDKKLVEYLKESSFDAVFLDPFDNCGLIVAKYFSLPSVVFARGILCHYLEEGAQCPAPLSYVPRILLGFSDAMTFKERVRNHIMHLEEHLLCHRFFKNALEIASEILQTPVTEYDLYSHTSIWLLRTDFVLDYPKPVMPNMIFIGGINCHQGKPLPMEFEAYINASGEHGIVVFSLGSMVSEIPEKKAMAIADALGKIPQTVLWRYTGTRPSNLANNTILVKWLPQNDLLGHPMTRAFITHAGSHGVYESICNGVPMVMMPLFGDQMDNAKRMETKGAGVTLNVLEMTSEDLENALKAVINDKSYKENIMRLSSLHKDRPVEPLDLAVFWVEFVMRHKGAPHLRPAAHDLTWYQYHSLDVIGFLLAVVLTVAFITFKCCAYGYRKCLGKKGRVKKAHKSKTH
Kind of series: Kinetic profiling of glucuronidation by expressed human UGT1A9. The following applies: for Log (CLint) (Actual): log of experimental CLint (μl/mg/min).

For the compound `O=c1c(O)c(-c2ccc(O)c(O)c2)oc2cc(O)ccc12` [84.a, Fisetin], the “Log (CLint) (Actual)” value amounted to 3.38. Further, the “Log (CLint) (Actual)” value (listed as 84.b) was determined as 3.55. Under “listed as 84.c”, the “Log (CLint) (Actual)” value is reported as 3.49.
Turning to `COc1cc(-c2oc3cc(O)ccc3c(=O)c2O)ccc1O` [compound 86, Geraldol], the “Log (CLint) (Actual)” value is 3.60.
On the same count and under the same terms, the value for `COc1cc(-c2cc(=O)c3c(O)cc(O)cc3o2)cc(OC)c1OC` [compound 33, 5,7-Dihydroxy-3′,4′,5′-trimethoxyflavone] was 2.93; that for `COc1ccc(-c2oc3cc(O)cc(O)c3c(=O)c2OC)cc1OCc1ccccc1` [compound 30, 3′-Benzyloxy-5,7-dihydroxy-3,4′-dimethoxyflavone] was 3.22.
In the case of `COc1cc(O)c2c(=O)c(O)c(-c3ccc(O)c(O)c3)oc2c1` [compound 93, Rhamnetin], the “Log (CLint) (Actual)” value is 4.65.
Turning to `O=c1c(O)c(-c2ccccc2O)oc2ccccc12` [compound 59, 3,2′-Dihydroxyflavone], the “Log (CLint) (Actual)” value amounted to 1.89.
Still for that read-out and setting: the value for `Oc1ccc(/C=C/c2cc(O)cc(O)c2)cc1` [compound 138, Resveratrol] was 1.8; that for `O=c1cc(-c2ccccc2O)oc2cc(O)ccc12` [compound 42, 7,2′-Dihydroxyflavone] was 2.77; that for `COc1ccc(-c2oc3cc(OC)ccc3c(=O)c2O)cc1` [compound 79, 3-Hydroxy-7,4′-dimethoxyflavone] was 4.66.
The same measure, in the same setting: the value for `O=c1cc(-c2ccc(O)c(O)c2)oc2ccc(O)cc12` [compound 35, 6,3′,4′-Trihydroxyflavone] was 3.54; that for `Cc1ccc2oc(-c3ccccc3)c(O)c(=O)c2c1` [compound 66, 3-Hydroxy-6-methylflavone] was 5.04; that for `COc1ccc(-c2coc3cc(O)ccc3c2=O)cc1` [compound 104, Formononetin] was 1.48.
On the same count and under the same terms, the figure for `Cc1ccc2oc(=O)cc(O)c2c1` [compound 11, 4-Hydroxy-6-methylcoumarin] is 0.59.
As to `COc1cc2ccc(=O)oc2cc1O` [compound 14, Scopoletin], the “Log (CLint) (Actual)” value is reported as 2.28.
Still for that read-out and setting: the figure for `COc1ccc(-c2oc3cc(O)cc(O)c3c(=O)c2OC)cc1O` [compound 29, 3,4′-Dimethoxy-5,7,3′-trihydroxyflavone] is 3.66.
Take `O=c1c(O)c(-c2ccc(O)cc2)oc2cc(O)ccc12` [92.a, Resokaempferol]: the “Log (CLint) (Actual)” value worked out at 3.86. Besides, the “Log (CLint) (Actual)” value (listed as 92.b) amounted to 2.63.
As to `O=c1oc2cc(O)ccc2c(-c2ccccc2)c1-c1ccccc1` [compound 9, 3,4-Diphenyl-7-hydroxycoumarin], the “Log (CLint) (Actual)” value worked out at 1.61.
Turning to `N#C/C(=C\c1ccc(O)c(O)c1)C(=O)NCc1ccccc1` [23.a, Tyrphostin B42], the Vmax (in general, the top rate of the reaction or transport when substrate is in excess) (pH 7.4) is 3677 pmol/mg/min and 2008 pmol/mg/min.
Consider `COc1cccc(-c2oc3ccccc3c(=O)c2O)c1` [compound 73, 3-Hydroxy-3′-methoxyflavone], for which the “Log (CLint) (Actual)” value is 4.66.
For the compound `O=c1c(O)c(-c2ccc(O)cc2)oc2cc(O)cc(O)c12` [88.a, Kaempferol], the “Log (CLint) (Actual)” value was determined as 3.78. Further, the “Log (CLint) (Actual)” value (listed as 88.b) is recorded as 2.34.
For the compound `Oc1ccc(F)cc1` [compound 115, 4-Fluorophenol], the “Log (CLint) (Actual)” value is 1.18.
As for `COc1ccc2c(=O)c(-c3ccccc3)coc2c1O` [compound 99, 8-Hydroxy-7-methoxyisoflavone], the “Log (CLint) (Actual)” value came to 3.57.
`COc1ccc2oc(-c3ccccc3)c(O)c(=O)c2c1` [compound 78, 3-Hydroxy-6-methoxyflavone]: the “Log (CLint) (Actual)” value was 4.86.
Consider `O=c1c(O)c(-c2ccc(O)c(O)c2)oc2cc(O)cc(O)c12` [91.a, Quercetin], for which the “Log (CLint) (Actual)” value worked out at 3.97. In addition, the “Log (CLint) (Actual)” value (listed as 91.b) is recorded as 3.32. For the setting “listed as 91.c”, the “Log (CLint) (Actual)” value is listed as 3.65.
As to `O=c1c(O)c(-c2ccccc2)oc2ccccc12` [compound 81, 3-Hydroxyflavone], the “Log (CLint) (Actual)” value is listed as 3.84.
Regarding `Nc1ccc(C(=O)O)c(O)c1` [aminosalicylic acid, reference compound], under “incubating compound with UGT1A9”, the “glucuronide metabolite formation on incubation with UGT1A9 (non-substrate)” value is on record as “no metabolite can be detected”.
Turning to `CC(=O)c1ccc(O)cc1` [compound 121, 4-Hydroxyacetophenone], the “Log (CLint) (Actual)” value amounted to 1.15.
Take `O=c1cc(-c2ccccc2O)oc2cc(O)cc(O)c12` [compound 40, 5,7,2′-Trihydroxyflavone]: the “Log (CLint) (Actual)” value came out at 3.57.
The same measure, in the same setting: the figure for `O=c1cc(-c2ccccc2)oc2ccc(O)cc12` [compound 38, 6-Hydroxyflavone] is 1.53; for `COc1ccc(O)cc1` [compound 118, 4-Methoxyphenol] it is 1.18; for `COc1c(C)c2c(c(O)c1C/C=C(\C)CCC(=O)O)C(=O)OC2` [compound 142, Mycophenolic Acid, reference compound] it is 1.96.
In the case of `O=c1c(O)c(-c2ccccc2O)oc2cc(O)cc(O)c12` [compound 83, Datiscetin], the “Log (CLint) (Actual)” value is listed as 2.00.
Consider `COc1cc(-c2oc3cc(O)ccc3c(=O)c2O)cc(OC)c1OC` [67.a, 3,7-Dihydroxy-3′,4′,5′-trimethoxyflavone], for which the “Log (CLint) (Actual)” value came out at 3.66.
Same read-out and setting: the figure for `Oc1ccc(C2CCCC2)cc1` [compound 112, 4-Cyclopentylphenol] is 1.78.
Still for that read-out and setting: the figure for `COc1cccc(-c2oc3ccccc3c(=O)c2O)c1OC` [compound 71, 3-Hydroxy-2′,3′-dimethoxyflavone] is 3.92; for `O=C(/C=C/c1ccc(O)cc1)c1ccccc1` [compound 4, 4-Hydroxychalcone] it is 1.53.
Still for that read-out and setting: the figure for `CCN(CC)C(=O)/C(C#N)=C/c1cc(O)c(O)c([N+](=O)[O-])c1` [compound 140, Entacapone, reference compound] is 4.01; for `O=c1c(O)c(-c2ccc(O)c(O)c2)oc2ccccc12` [compound 63, 3,3′,4′-Trihydroxyflavone] it is 4.34; for `Oc1cc(O)c2c(c1)O[C@H](c1cc(O)c(O)c(O)c1)[C@H](O)C2` [compound 2, (−)-Epigallocatechin] it is 1.58.
For the compound `CC/C(=C(\c1ccc(O)cc1)c1ccc(OCCNC)cc1)c1ccccc1` [compound 19, Endoxifen], the “Log (CLint) (Actual)” value is given as 0.82.
Still for that read-out and setting: the value for `CCOc1ccc(O)cc1` [compound 113, 4-Ethoxyphenol] was 0.92.
With `Cc1c(-c2ccccc2)oc2cc(O)ccc2c1=O` [compound 45, 7-Hydroxy-3-methylflavone], the “Log (CLint) (Actual)” value is 3.30.
With `O=C(/C=C/c1ccc(O)cc1)CC(=O)/C=C/c1ccc(O)cc1` [compound 17, Bisdemethoxycurcumin], the “Log (CLint) (Actual)” value turned out to be 0.90.
With `O=c1cc(-c2ccccc2)oc2cc(O)ccc12` [compound 49, 7-Hydroxyflavone], the “Log (CLint) (Actual)” value was determined as 3.13.
Still for that read-out and setting: the value for `COc1cc(OC)c2c(=O)c(O)c(-c3ccccc3)oc2c1` [compound 75, 3-Hydroxy-5,7-dimethoxyflavone] was 4.40; that for `O=c1cc(-c2ccccc2)oc2cc(O)c(O)cc12` [compound 37, 6,7-Dihydroxyflavone] was 2.96.
Still for that read-out and setting: the figure for `O=c1cc(-c2cccc(O)c2)oc2ccccc12` [compound 31, 3′-Hydroxyflavone] is 2.66.
Turning to `COc1cccc2oc(-c3ccccc3)c(O)c(=O)c12` [compound 76, 3-Hydroxy-5-methoxyflavone], the “Log (CLint) (Actual)” value is 4.36.
On to `O=c1ccoc2cc(O)ccc12` [compound 8, 7-Hydroxychromone], for which the “Log (CLint) (Actual)” value was 0.91.
For `O=C(CCc1ccc(O)cc1)c1c(O)cc(O)cc1O` [7.a, Phloretin], the “Log (CLint) (Actual)” value was 2.87. For the same compound, where the note is “listed as 7.b”, the “Log (CLint) (Actual)” value was determined as 3.17.
Regarding `COc1cc2c(=O)c(-c3ccccc3)coc2cc1O` [compound 98, 7-Hydroxy-6-methoxyisoflavone], the “Log (CLint) (Actual)” value came out at 2.57.
Turning to `O=C(/C=C/c1ccccc1O)c1ccccc1` [compound 3, 2-Hydroxychalcone], the “Log (CLint) (Actual)” value amounted to 3.38.
Take `Oc1ccc(Cl)cc1` [compound 111, 4-Chlorophenol]: the “Log (CLint) (Actual)” value is listed as 1.98.
Take (−)-Epigallocatechingallate [1.a]: the “Log (CLint) (Actual)” value is 2.20. The “Log (CLint) (Actual)” value (listed as 1.b) stood at 2.81.
With `O=c1c(O)c(-c2ccccc2)oc2cccc(O)c12` [compound 61, 3,5-Dihydroxyflavone], the “Log (CLint) (Actual)” value is listed as 3.87.
On to `O=C1C[C@@H](c2ccc(O)cc2)Oc2cc(O)cc(O)c21` [compound 27, Narigenin], for which the “Log (CLint) (Actual)” value stood at 3.18. For the same compound, the Michaelis-Menten constant (Km) – broadly, the concentration of substrate that gives half-maximal velocity – (human, expressed human UGT1A9 (Supersomes), pH 7.4) was 3.34 µM.

Source of the values: PMC3409642 (Pharmaceutical research, 2012).
